In US11066445B2, “Immunomodulators acting as antagonists of PD-1” (Bristol-Myers Squibb Company, priority 2017, dated 2021):
Like-named read-outs stand apart in the source and are kept apart here. Starred links: 1 amine or outer side, 2 acyl side, 3 side chain; linkers in the order of their positions; H or OH if unused. Positions of bridges follow the written chain, without caps; N, C: chain ends. Non-standard residues stand in square brackets, D forms with d. Residues, ends and D or L forms follow the SMILES beside them. *: point of attachment. X3 = O=C(O)CCCCCCCCCCCCCCCCC(=O)N[C@@H](CCC(=O)NCCCOCCOCCOCCCN*)C(=O)O; Trp(1-CH2CONHSO2Me) = CS(=O)(=O)NC(=O)Cn1cc(C[C@H](N)C(=O)O)c2ccccc21; Trp(4-aza,1-CH2COOH) = N[C@@H](Cc1cn(CC(=O)O)c2cccnc12)C(=O)O; Trp(1-CH2CO2Me) = COC(=O)Cn1cc(C[C@H](N)C(=O)O)c2ccccc21; X4 = O=C(O)Cn1nc(C[C@H](N[*:1])C(=O)[*:2])c2ccccc21; d(cisHyp) = O=C(O)[C@H]1C[C@@H](O)CN1; Hyp = O=C(O)[C@@H]1C[C@@H](O)CN1; NMeNle = CCCC[C@H](NC)C(=O)O; NMeA = CN[C@@H](C)C(=O)O; Dab = NCC[C@H](N)C(=O)O; Dap = NC[C@H](N)C(=O)O; Sar = CNCC(=O)O

Molecular target: T1, PD-1-Ig binding to PD-L1-TVMV-His (PD-L1-His) (Homo sapiens, UniProt Q9NZQ7)
T1 construct: hPDL1(19-239)-TVMV-His; TVMV protease cleavage site (C); made in house; host or cells: HEK293T cells
T1 sequence (Q9NZQ7 with tags, fused parts or gaps): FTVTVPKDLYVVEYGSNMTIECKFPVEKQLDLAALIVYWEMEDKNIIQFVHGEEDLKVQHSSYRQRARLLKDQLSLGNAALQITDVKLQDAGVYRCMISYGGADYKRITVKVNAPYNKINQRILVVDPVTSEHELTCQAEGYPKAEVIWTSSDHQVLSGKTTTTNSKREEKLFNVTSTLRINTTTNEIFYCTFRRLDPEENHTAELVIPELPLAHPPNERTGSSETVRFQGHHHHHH
Assay: PD-1/PD-L1 Homogenous Time-Resolved Fluorescence (HTRF) binding assay
Conditions: PD-1-Ig (20 nM) / PD-L1-His (10 nM), read-out: LE HTRF hPD1 hPDL1 IC50
Excerpt: Methods for Testing the Ability of Macrocyclic Peptides to Compete for the Binding of Pd-1 to Pd-L1 Using Homogenous Time-Resolved Fluorescence (HTRF) Binding Assays
The ability of the macrocyclic peptides of the present disclosure to bind to PD-L1 was investigated using a PD-1/PD-L1 Homogenous Time-Resolved Fluorescence (HTRF) binding assay.
Homogenous Time-Resolved Fluorescence (HTRF) Assays of Binding of Soluble PD-1 to Soluble PD-L1. Soluble PD-1 and soluble PD-L1 refers to proteins with carboxyl-end truncations that remove the transmembrane-spanning regions and are fused to heterologous sequences, specifically the Fc portion of the human immunoglobuling G sequence (Ig) or the hexahistidine epitope tag (His). All binding studies were performed in an HTRF assay buffer consisting of dPBS supplemented with 0.1% (w/v) bovine serum albumin and 0.05% (v/v) Tween-20. For the PD-1-Ig/PD-L1-His binding assay, inhibitors were pre-incubated with PD-L1-His (10 nM final) for 15 m in 4 μl of assay buffer, followed by addition of PD-1-Ig (20 nM final) in 1 μl of assay buffer and further incubation for 15 m. PD-L1 fusion proteins from either human, cynomologous macaques, mouse, or other species were used. HTRF detection was achieved using europium crypate-labeled anti-Ig monoclonal antibody (1 nM final) and allophycocyanin (APC) labeled anti-His monoclonal antibody (20 nM final). Antibodies were diluted in HTRF detection buffer and 5 μl was dispensed on top of binding reaction. The reaction was allowed to equilibrate for 30 minutes and signal (665 nm/620 nm ratio) was obtained using an EnVision fluorometer. Additional binding assays were established between PD-1-Ig/PD-L2-His (20 and 5 nM, respectively), CD80-His/PD-L1-Ig (100 and 10 nM, respectively) and CD80-His/CTLA4-Ig (10 and 5 nM, respectively). Binding/competition studies between biotinylated Compound No. 71 and human PD-L1-His were performed as follows. Macrocyclic peptide inhibitors were pre-incubated with PD-L1-His (10 nM final) for 60 minutes in 4 μl of assay buffer followed by addition of biotinylated Compound No. 71 (0.5 nM final) in 1 μl of assay buffer. Binding was allowed to equilibrate for 30 minutes followed by addition of europium crypated labeled Streptavidin (2.5 pM final) and APC-labeled anti-His (20 nM final) in 5 μl of HTRF buffer. The reaction was allowed to equilibrate for 30 m and signal (665 nm/620 nm ratio) was obtained using an EnVision fluorometer.
Recombinant Proteins. Carboxyl-truncated human PD-1 (amino acids 25-167) with a C-terminal human Ig epitope tag [hPD-1 (25-167)-3S-IG] and human PD-L1 (amino acids 18-239) with a C-terminal His epitope tag [hPD-L1(19-239)-tobacco vein mottling virus protease cleavage site (TVMV)-His] were expressed in HEK293T cells and purified sequentially by recombinant Protein A affinity chromatography and size exclusion chromatography. Human PD-L2-His (Sino Biologicals), CD80-His (Sino Biologicals), CTLA4-Ig (RnD Systems) were all obtained through commercial sources.
Ranges are as follows: A=0.010-0.060 μM; B=0.0011-0.009 μM; C=0.0003-0.0010 μM.

Row | Compound | IC50 (numeric values) [nM] | IC50 (range classes) [nM]
1 | CCCC[C@H]1C(=O)N(C)[C@@H](CCCC)C(=O)N[C@@H](CC(C)C)C(=O)N[C@H](C(=O)NCC(=O)N[C@@H](CC(=O)NCCCOCCOCCOCCCNC(=O)CC[C@H](NC(=O)CCCCCCCCCCCCCCCCC(=O)O)C(=O)O)C(=O)O)CSCC(=O)N[C@@H](Cc2ccc(O)cc2)C(=O)N(C)[C@@H](C)C(=O)N[C@@H](CC(N)=O)C(=O)N2CCC[C@H]2C(=O)N[C@@H](CN)C(=O)N[C@@H](CC(C)C)C(=O)N2C[C@H](O)C[C@H]2C(=O)N[C@@H](Cc2c[nH]c3ccccc23)C(=O)N[C@@H](CCN)C(=O)N[C@@H](Cc2cn(CC(=O)NS(C)(=O)=O)c3ccccc23)C(=O)N1C [Example 1] ({CH2CO}-Y[NMeA]NP[Dap]L[Hyp]W[Dab][Trp(1-CH2CONHSO2Me)][NMeNle][NMeNle]LCGD(X3)-OH; thioether N-14) | 1.2 | 
2 | CCCC[C@H]1C(=O)N(C)[C@@H](CCCC)C(=O)N[C@@H](CC(C)C)C(=O)N[C@H](C(=O)NCC(=O)NCCCOCCOCCOCCCNC(=O)CC[C@H](NC(=O)CCCCCCCCCCCCCCCCC(=O)O)C(=O)O)CSCC(=O)N[C@@H](Cc2ccc(O)cc2)C(=O)N(C)[C@@H](C)C(=O)N[C@@H](CC(N)=O)C(=O)N(C)CC(=O)N[C@@H](CN)C(=O)N[C@@H](CC(C)C)C(=O)N2C[C@H](O)C[C@H]2C(=O)N[C@@H](Cc2c[nH]c3ccccc23)C(=O)N[C@@H](CCN)C(=O)N[C@@H](Cc2cn(CC(=O)NS(C)(=O)=O)c3ccccc23)C(=O)N1C [Example 4] ({CH2CO}-Y[NMeA]N[Sar][Dap]L[Hyp]W[Dab][Trp(1-CH2CONHSO2Me)][NMeNle][NMeNle]LCG-X3; thioether N-14) |  | 1.1 to 9
3 | CCCC[C@H]1C(=O)N(C)[C@@H](CCCC)C(=O)N[C@@H](CC(C)C)C(=O)N[C@H](C(=O)NCC(=O)N[C@@H](CC(=O)NCCCOCCOCCOCCCNC(=O)CC[C@H](NC(=O)CCCCCCCCCCCCCCCCC(=O)O)C(=O)O)C(=O)O)CSCC(=O)N[C@@H](Cc2ccc(O)cc2)C(=O)N(C)[C@@H](C)C(=O)N[C@@H](CC(N)=O)C(=O)N2CCC[C@H]2C(=O)N[C@@H](CN)C(=O)N[C@@H](CC(C)C)C(=O)N2C[C@H](O)C[C@H]2C(=O)N[C@@H](Cc2c[nH]c3ccccc23)C(=O)N[C@@H](CCN)C(=O)N[C@@H](Cc2nn(CC(=O)O)c3ccccc23)C(=O)N1C [Example 5] ({CH2CO}-Y[NMeA]NP[Dap]L[Hyp]W[Dab][X4][NMeNle][NMeNle]LCGD(X3)-OH; thioether N-14) |  | 1.1 to 9
4 | CCCC[C@H]1C(=O)N(C)[C@@H](CCCC)C(=O)N[C@@H](CC(C)C)C(=O)N[C@H](C(=O)NCC(=O)N[C@@H](CC(=O)NCCCOCCOCCOCCCNC(=O)CC[C@H](NC(=O)CCCCCCCCCCCCCCCCC(=O)O)C(=O)O)C(=O)O)CSCC(=O)N[C@@H](Cc2ccc(O)cc2)C(=O)N(C)[C@@H](C)C(=O)N[C@@H](CC(N)=O)C(=O)N(C)CC(=O)N[C@@H](CN)C(=O)N[C@@H](CC(C)C)C(=O)N2C[C@H](O)C[C@H]2C(=O)N[C@@H](Cc2c[nH]c3ccccc23)C(=O)N[C@@H](CCN)C(=O)N[C@@H](Cc2nn(CC(=O)O)c3ccccc23)C(=O)N1C [Example 6] ({CH2CO}-Y[NMeA]N[Sar][Dap]L[Hyp]W[Dab][X4][NMeNle][NMeNle]LCGD(X3)-OH; thioether N-14) |  | 1.1 to 9
5 | CCCC[C@H]1C(=O)N(C)[C@@H](CCCC)C(=O)N[C@@H](CC(C)C)C(=O)N[C@H](C(=O)NCC(=O)N[C@@H](CC(=O)NCCCOCCOCCOCCCNC(=O)CC[C@H](NC(=O)CCCCCCCCCCCCCCCCC(=O)O)C(=O)O)C(=O)O)CSCC(=O)N[C@@H](Cc2ccc(O)cc2)C(=O)N(C)[C@@H](C)C(=O)N[C@@H](CC(N)=O)C(=O)N2CCC[C@H]2C(=O)N[C@@H](CN)C(=O)N[C@@H](CC(C)C)C(=O)N2C[C@H](O)C[C@H]2C(=O)N[C@@H](Cc2c[nH]c3ccccc23)C(=O)N[C@@H](CCN)C(=O)N[C@@H](Cc2cn(CC(=O)O)c3cccnc23)C(=O)N1C [Example 7] ({CH2CO}-Y[NMeA]NP[Dap]L[Hyp]W[Dab][Trp(4-aza,1-CH2COOH)][NMeNle][NMeNle]LCGD(X3)-OH; thioether N-14) |  | 1.1 to 9
6 | CCCC[C@H]1C(=O)N(C)[C@@H](CCCC)C(=O)N[C@@H](CC(C)C)C(=O)N[C@H](C(=O)NCC(=O)N[C@@H](CC(=O)NCCCOCCOCCOCCCNC(=O)CC[C@H](NC(=O)CCCCCCCCCCCCCCCCC(=O)O)C(=O)O)C(=O)O)CSCC(=O)N[C@@H](Cc2ccc(O)cc2)C(=O)N(C)[C@@H](C)C(=O)N[C@@H](CC(N)=O)C(=O)N(C)CC(=O)N[C@@H](CN)C(=O)N[C@@H](CC(C)C)C(=O)N2C[C@H](O)C[C@@H]2C(=O)N[C@@H](Cc2c[nH]c3ccccc23)C(=O)N[C@@H](CCN)C(=O)N[C@@H](Cc2cn(CC(=O)O)c3cccnc23)C(=O)N1C [Example 8] ({CH2CO}-Y[NMeA]N[Sar][Dap]L[d(cisHyp)]W[Dab][Trp(4-aza,1-CH2COOH)][NMeNle][NMeNle]LCGD(X3)-OH; thioether N-14) |  | 1.1 to 9

Continued, values first:

Row | IC50 (numeric values) [nM] | IC50 (range classes) [nM] | Compound
7 |  | 1.1 to 9 | CCCC[C@H]1C(=O)N(C)[C@@H](CCCC)C(=O)N[C@@H](CC(C)C)C(=O)N[C@H](C(=O)NCC(=O)N[C@@H](CC(=O)NCCCOCCOCCOCCCNC(=O)CC[C@H](NC(=O)CCCCCCCCCCCCCCCCC(=O)O)C(=O)O)C(=O)O)CSCC(=O)N[C@@H](Cc2ccc(O)cc2)C(=O)N(C)[C@@H](C)C(=O)N[C@@H](CC(N)=O)C(=O)N(C)CC(=O)N[C@@H](CN)C(=O)N[C@@H](CC(C)C)C(=O)N2C[C@H](O)C[C@H]2C(=O)N[C@@H](Cc2c[nH]c3ccccc23)C(=O)N[C@@H](CCN)C(=O)N[C@@H](Cc2cn(CC(=O)NS(C)(=O)=O)c3ccccc23)C(=O)N1C [Example 2] ({CH2CO}-Y[NMeA]N[Sar][Dap]L[Hyp]W[Dab][Trp(1-CH2CONHSO2Me)][NMeNle][NMeNle]LCGD(X3)-OH; thioether N-14)
8 |  | 1.1 to 9 | CCCC[C@H]1C(=O)N(C)[C@@H](CCCC)C(=O)N[C@@H](CC(C)C)C(=O)N[C@H](C(=O)NCC(=O)NCCCOCCOCCOCCCNC(=O)CC[C@H](NC(=O)CCCCCCCCCCCCCCCCC(=O)O)C(=O)O)CSCC(=O)N[C@@H](Cc2ccc(O)cc2)C(=O)N(C)[C@@H](C)C(=O)N[C@@H](CC(N)=O)C(=O)N2CCC[C@H]2C(=O)N[C@@H](CN)C(=O)N[C@@H](CC(C)C)C(=O)N2C[C@H](O)C[C@H]2C(=O)N[C@@H](Cc2c[nH]c3ccccc23)C(=O)N[C@@H](CCN)C(=O)N[C@@H](Cc2cn(CC(=O)NS(C)(=O)=O)c3ccccc23)C(=O)N1C [Example 3] ({CH2CO}-Y[NMeA]NP[Dap]L[Hyp]W[Dab][Trp(1-CH2CONHSO2Me)][NMeNle][NMeNle]LCG-X3; thioether N-14)
9 |  | 0.3 to 1 | CCCC[C@H]1C(=O)N(C)[C@@H](CCCC)C(=O)N[C@@H](CC(C)C)C(=O)N[C@H](C(=O)NCC(=O)N[C@@H](CC(=O)NCCCOCCOCCOCCCNC(=O)CC[C@H](NC(=O)CCCCCCCCCCCCCCCCC(=O)O)C(=O)O)C(=O)O)CSCC(=O)N[C@@H](Cc2ccc(O)cc2)C(=O)N(C)[C@@H](C)C(=O)N[C@@H](CC(N)=O)C(=O)N2CCC[C@H]2C(=O)N[C@@H](CN)C(=O)N[C@@H](CC(C)C)C(=O)N2C[C@H](O)C[C@H]2C(=O)N[C@@H](Cc2c[nH]c3ccccc23)C(=O)N[C@@H](CCN)C(=O)N[C@@H](Cc2cn(CC(=O)OC)c3ccccc23)C(=O)N1C [Example 9] ({CH2CO}-Y[NMeA]NP[Dap]L[Hyp]W[Dab][Trp(1-CH2CO2Me)][NMeNle][NMeNle]LCGD(X3)-OH; thioether N-14)
